# Columns and labels:
# [1] = tested on: HA-tagged human PGRMC1; test: Competition of PGRMC1 cross-linking by natural amino acids; assay type: cell-based; details: 3 mM competing amino acid, COS7 cells in LM-4
# Procedure: FIG. 4: Specificity of incorporation and cross-linking by photo-Met and photo-Leu. COS7 cells were transfected with HA-tagged human PGRMC1 and were grown in LM-4 in the absence or presence of photo-Leu (A) or photo-Met (B) with addition of 3 mM of the indicated competing amino acid. cross-linked products formed after UV-irradiation were detected by SDS-PAGE followed by western blotting against the HA-epitope. (C) COS7 cells were grown in the presence of 1.7 mM [1-^14C]photo-Met, a constant trace amount of [^3H]Phe and 3 mM of competing unlabeled amino acids as indicated in the legend. Protein was precipitated and protein-bound radioactivity was determined by scintillation counting. […] The control value obtained in the absence of competing amino acid (con) is set to 100. Data are average±SD of triplicate determinations.
# If so, addition of the complementary naturally occurring amino acid should strongly reduce incorporation and inhibit photo-crosslinking. […] To find out if competition for cross-linking reflects competition for incorporation, we competed incorporation of [1-^14C]photo-Met with the same set of amino acids (FIG. 4c). […] It should be noted that Met, Val, Leu and Ile all are transported into cells by the L-type transport system^25, which presumably also transports the three photo-amino acids. The strong difference in competition by Met and Leu versus Val and Ile excludes competition at the level of uptake.
# [2] = tested on: COS7 cells; test: Cell viability after UV irradiation by trypan blue exclusion; assay type: cell-based, monkey
# [3] = tested on: COS7 cells; test: Protein biosynthesis by incorporation of [3H]Phe; assay type: cell-based, monkey; details: for Protein synthesis: LM-2 medium supplement, value in full DMEM medium set to 100, average ± SD of triplicate; for effect on protein biosynthesis: addition to LM-2 medium
# From the text: (§1) Unnatural amino acids frequently are toxic to cells. To find out if this is the case for photo-amino acids of the invention, we monitored in COS7 cells protein biosynthesis by incorporation of [^3H]Phe and viability by trypan blue exclusion of cells grown in the presence or absence of the photo-amino acids photo-Leu, photo-Met and photo-Ile. Due to the lack of two essential amino acids in the growth medium, protein biosynthesis is reduced to about 65% of that in a full growth medium. […] Although cells grew slightly slower than in full growth medium, viability (Table 2) and cell morphology (not shown) were unaffected.
# [4] = tested on: E. coli beta-galactosidase; test: Activity of beta-galactosidase expressed in cells grown with photo-amino acids; assay type: cell-based, monkey; details: COS 7 cells, 20 h in LM-2 with photo-amino acid; percent ± SD (n = 6) of value in DMEM + FCS
# From the text: We furthermore tested, whether proteins produced by cells grown with photo-amino acids are functional or not. For that, we transfected cells with GFP-fusion constructs of the small GTPase Rab5 and of mutated Rab5 that is constitutively activated (GFP-Rab5QL) or dominant negative (GFP-Rab5SN)^19 and monitored the GFP fluorescence by confocal microscopy. Four hours after transfection, when cells were switched to media containing photo-amino acids, no GFP signal was detectable (see FIG. 7). […] Both, staining intensity and localization were unaffected by the presence of either of the photo-amino acids. Taking into account a frequency of substitution of photo-Met for Met of 35% (see below) and the amounts of Met in Rab5 and GFP, more than 80% of the fusion protein will have photo-Met in both the Rab5- and the GFP-part of the fusion, more than 99% in at least one of the two parts. […] To corroborate this with a quantitative assay, we measured the activity of beta-galactosidase that was expressed in the absence or presence of photo-amino acids (see Table 4). Activity in LM-2 labeling medium was 79% of that in full DMEM. The addition of either of the three photo-amino acids or of a mixture of photo-Met and photo-Leu had no significant additional effect. E. coli beta-galactosidase contains 23 methionines of which on average 8 would be replaced by photo-Met; less than 0.01% of the protein are expected to have no substitution by photo-Met. We conclude that photo-amino acids are non-toxic to cultivated mammalian cells and can, at least partially, functionally replace branched chain amino acids and methionine.
# [5] = tested on: COS7 cells; test: Cell viability by trypan blue exclusion; assay type: cell-based, monkey; details: LM-2 medium supplement; percent ± SD of viable cells (n = 6)
# From the text: as §1
# [6] = tested on: caveolin-1; test: Photo-crosslinking of transfected caveolin-1 in COS7 cells; assay type: cell-based, human; details: irradiated samples, COS7 cells in LM-4
# Procedure: FIG. 3: Photo-crosslinking induced by photo-amino acids. COS7 cells (panels a,b) or HeLa cells (panel c) were grown in LM-4 (panel a) or LM-2 (panels b,c) in the absence or presence of L-photo-Leu (pL), L-photo-Met (pM) or DL-photo-Ile (pl) or mixtures of them (pLM or PLMI) followed by UV irradiation (+) or no irradiation (−). cross-linked products formed after UV-irradiation were detected by SDS-PAGE followed by western blotting using (a) anti-caveolin 1 to detect overexpressed caveolin 1, (b) anti-stomatin to detect endogenous stomatin or (c) anti-EEA1 to detect endogenous EEA1. In panel b, lanes 8 and 9 show cross-linking with two different concentrations of the chemical cross-linker DSS for comparison of cross-linking efficiency. In panel c, photocrosslinking of endogenous EEA1 by photo-Leu and photo-Met is compared to chemical cross-linking using DSS or para-formaldehyde (PFA) as indicated. Note that chemical cross-linking leads to protein aggregates that are not resolvable by SDS-PAGE while photocrosslinking identifies more than six discrete cross-linked bands.
# COS7 (monkey kidney) cells were grown in DMEM high glucose (Gibco no. 11995; with L-glutamine and Na-pyruvate)+10% FCS. Typically, 3 cm2 of cells are needed for a cross-linking experiment with detection by western blotting. At about 70%, medium was replaced by LM-4 (DMEM lacking Met, Leu, Ile and Val and phenol red, supplemented with 5% dialyzed FCS) or by LM-2 (LM-4+1 mM of each Ile and Val). Photo-amino acids were added to a final concentration of 4 mM photo-Leu and photo-Ile, 1.7 mM photo-Met and cells were cultivated for further 22 h followed by washing with PBS and UV-irradiation using a 200 W high pressure mercury lamp (Oriel Photomax) with a glass filter to remove wavelengths shorter 310 nm. The samples were placed at a distance of 38 cm to the light source, corresponding to a illuminated area of 105 mm diameter. […] We used an irradiation time 1-3 min for experiments with living cells. […] Lysis of cells, SDS-PAGE and western blotting were done as described^33. […]
# [7] = tested on: COS7 cells; test: Cell viability after UV irradiation by trypan blue exclusion; assay type: cell-based, monkey; remark: listed apart in the source
# Procedure: COS7 (monkey kidney) cells were grown in DMEM high glucose (Gibco no. 11995; with L-glutamine and Na-pyruvate)+10% FCS. Typically, 3 cm2 of cells are needed for a cross-linking experiment with detection by western blotting. At about 70%, medium was replaced by LM-4 (DMEM lacking Met, Leu, Ile and Val and phenol red, supplemented with 5% dialyzed FCS) or by LM-2 (LM-4+1 mM of each Ile and Val). Photo-amino acids were added to a final concentration of 4 mM photo-Leu and photo-Ile, 1.7 mM photo-Met and cells were cultivated for further 22 h followed by washing with PBS and UV-irradiation using a 200 W high pressure mercury lamp (Oriel Photomax) with a glass filter to remove wavelengths shorter 310 nm. The samples were placed at a distance of 38 cm to the light source, corresponding to a illuminated area of 105 mm diameter. […] We used an irradiation time 1-3 min for experiments with living cells. […] Lysis of cells, SDS-PAGE and western blotting were done as described^33. For immunoprecipitation, cells were lysed in 20 mM Hepes/NaOH pH 7.4, 100 mM NaCl, 5 mM EDTA, 1% Triton X 100, 0.5% sodium deoxycholate, the lysate was cleared with protein-A beads and incubated with beads that were preincubated with polyclonal anti-myc or anti-HA antibody. Beads were collected and washed three times each with 20 mM Hepes/NaOH pH 7.25, 0.5% CHAPS and with 100 mM Tris-HCl pH 8.3, 150 mM NaCl, 2 mM EDTA, 0.1% w/v SDS, 0.5% w/v Nonidet P40, 0.5% w/v sodiumdeoxycholate. Proteins were eluted from beads by heating with reducing SDS-PAGE sample buffer.
# as §1
Compound,"competition of cross-linking by Met, Val, Leu and Ile [1]",Cell viability ([2]; 10 min UV) [%],Cell viability ([2]; 10 min UV + 1 h chase) [%],Cell viability ([2]; 30 min UV) [%],Cell viability ([2]; 30 min UV + 1 h chase) [%],Protein synthesis [3],effect on protein biosynthesis [3],beta-galactosidase activity [4] [%],Cell viability [5] [%],formation of covalent caveolin dimers upon UV irradiation [6],Cell viability ([7]; 1 min UV) [%],Cell viability ([7]; 1 min UV + 1 h chase) [%],Cell viability ([7]; 3 min UV) [%],Cell viability ([7]; 3 min UV + 1 h chase) [%],Cell viability ([7]; no UV + 1 h chase at 37 degree Celsius in PBS) [%],"Cell viability ([7]; no UV, percent ± SD of viable cells) [%]"
"CC1(CC(N)C(=O)O)N=N1 [photo-Leu, L-2-amino-4,4′-azi-pentanoic acid]",competed mainly by Leu,99.5 ± 0.3,91.5 ± 4.0,98.8 ± 0.4,17.9 ± 3.2,61.5 ± 1.7,no significant effect,68 ± 9,99.8 ± 0.2,significant formation of a cross-linked dimer,99.5 ± 0.2,95.5 ± 3.0,99.6 ± 0.2,95.3 ± 1.8,99.3 ± 0.5,99.5 ± 0.3
"CC(C(N)C(=O)O)C1(C)N=N1 (stereo not drawn) [photo-Ile, 2R,S-Amino-3-R,S-methyl-4,4′-azi-pentanoic acid]",,,,,,62.8 ± 2.8,no significant effect,93 ± 9,99.6 ± 0.3,very little cross-linking,,,,,,
